Reference: PMC4278837, “A Cyclic Peptidic Serine Protease Inhibitor: Increasing Affinity by Increasing Peptide Flexibility” (PLoS ONE, 2014)
Each block holds one compound with its values, some of them ahead of it. Bridge positions count the residues as written; N and C are the ends. Square brackets hold non-standard residues; d marks the D form. Peptide text beside a SMILES is read from it. Ala(1-amidino-4-piperidyl) = N=C(N)N1CCC(C[C@H](N)C(=O)O)CC1

Key:
huPA-H99Y [1] = biological target: T1, huPA-H99Y (Homo sapiens, UniProt P00749, H272Y); experiment: Ki for inhibition of huPA-H99Y, chromogenic substrate S-2444; format: biochemical; conditions: 37°C; means ± S.D.; read-out: K i for inhibition of huPA-H99Y
T1 construct: To ensure that the uPAs purified from the conditioned media were completely in the two-chain form, they were treated with plasmin; hexa-His (C); made in house; host or cells: HEK293 6E suspension cells
Text: (§1) Determination of Ki values
(§2) The initial reaction velocities were monitored at an absorbance of 405 nm. The inhibition constants (K i) were subsequently determined from the non-linear regression analyses of plots for V i/V o versus [I]0, using Equation 2, derived under assumption of competitive inhibition:
(§3) [drawing 2] (2) where V i and V 0 are the reaction velocities in the presence and absence of inhibitor, respectively; [S]0 and [I]0 are the substrate and inhibitor concentrations, respectively; K M is K M for substrate hydrolysis by each protease. In Equation 2, it is assumed that [S]free ≈ [S]0 and [I]free ≈ [I]0.

huPA-H99Y [2] = biological target: T1, huPA-H99Y; experiment: Surface plasmon resonance analysis of peptide binding to huPA-H99Y; conditions: SPR, 25°C, pH 7.4
Procedure: (§4) Surface plasmon resonance (SPR) analysis
(§5) To determine the equilibrium binding constants (KD), the association rate constants (kon) and dissociation rate constants (koff) for peptide binding to uPA, surface plasmon resonance analysis was performed on a Biacore T200 instrument (Biacore, Uppsala, Sweden). A CM5 chip was coupled with the uPA variant (muPA or huPAH99Y) to be analysed, by injecting a concentration of 30 µg/mL uPA in immobilization buffer (10 mM sodium acetate, pH 5.0), aiming for an immobilised level of approximately 500 response units (RU). Immobilisation was followed by surface blocking with ethanolamine. A reference cell was prepared in the same way, without coupling of uPA. Mupain-1 variants in HBS with 0.1% BSA, in a dilution series, were injected at a flow rate of 30 µL per min during 60 s at 25°C. Subsequently, the dissociation was monitored during 600 s. Kinetic constants (k on and k off) were calculated with the Biacore Evaluation Software, using the 1∶1 kinetic fit. The K D values were calculated as k off /k on.

huPA-H99Y [3] = biological target: T2, huPA-H99Y (Homo sapiens, UniProt P00749, C299A/H272Y/N322Q); experiment: Isothermal titration calorimetry for binding to huPA-H99Y catalytic domain; conditions: ITC, 25°C, pH 7.4
T2 construct: recombinant uPA catalytic domain (residues 159–411), harbouring a H99Y mutation; made in house; host or cells: Pichia pastoris X-33 (secreted)
Procedure: For these experiments, we used the catalytic domain of huPA-H99Y expressed in and purified from Pichia pastoris strain X-33 (see above). The protein was dissolved in and dialysed against a buffer of 20 mM sodium phosphate, pH 7.4, 140 mM NaCl. The protein concentration was determined by absorbance at 280 nm, using an extinction coefficient of 43810 M^−1cm^−1. The peptides were dissolved in the above-mentioned buffer. All isothermal titration calorimetry experiments were performed with a MicroCal^TM ITC200 instrument equilibrated to a temperature of 25°C (298oK). The concentration of uPA-H99Y catalytic domain used in the 200 µl sample cell was 5–50 µM, depending on the affinity of the ligand. Titrations were performed by injecting 2 µl of the ligand until the total syringe volume of 40 µl was spent. Titration of ligand into buffer was performed to obtain buffer correction. The equilibrium association constant KA and the reaction enthalpy ΔH were calculated by fitting the integrated titration peaks using a one-binding-site model in the ITC ORIGIN7 programme package. The following formulas for Gibbs free energy ΔG were used to analyse the measured energies
[drawing 4] (4) where R is the gas constant and T the absolute temperature. ΔS, the entropic change during the reaction, was calculated using equations 3 and 4 and the measured K A and ΔH values.

huPA-H99Y V41A = biological target: T3, huPA-H99Y V41A (Homo sapiens, UniProt P00749, H272Y/V208A); experiment: Ki for inhibition of huPA-H99Y-V41A, chromogenic substrate; format: biochemical; conditions: 37°C; means ± S.D.; read-out: K i for inhibition of huPA-H99Y-V41A
T3 construct: To ensure that the uPAs purified from the conditioned media were completely in the two-chain form, they were treated with plasmin; hexa-His (C); made in house; host or cells: HEK293 6E suspension cells
Text: as §1, §2, §3

muPA Y99A = biological target: T4, muPA Y99A (Mus musculus, UniProt P06869, Y274A); experiment: Ki for inhibition of muPA-Y99A, chromogenic substrate; format: biochemical, murine; conditions: means ± S.D.; read-out: K i for inhibition of muPA-Y99A
T4 construct: To ensure that the uPAs purified from the conditioned media were completely in the two-chain form, they were treated with plasmin; hexa-His (C); made in house; host or cells: HEK293 6E suspension cells
Text: as §1, §2, §3

muPA K143A = biological target: T5, muPA K143A (Mus musculus, UniProt P06869, K322A); experiment: Ki for inhibition of muPA-K143A, chromogenic substrate; format: biochemical, murine; conditions: means ± S.D.; read-out: K i for inhibition of muPA-K143A
T5 construct: To ensure that the uPAs purified from the conditioned media were completely in the two-chain form, they were treated with plasmin; hexa-His (C); made in house; host or cells: HEK293 6E suspension cells
Text: as §1, §2, §3

huPA-H99Y Q192A = huPA-H99Y Q192A (Homo sapiens, UniProt P00749, H272Y/Q373A); experiment: Ki for inhibition of huPA-H99Y-Q192A, chromogenic substrate; format: biochemical; design: To ensure that the uPAs purified from the conditioned media were completely in the two-chain form, they were treated with plasmin; hexa-His (C); made in house; host or cells: HEK293 6E suspension cells; conditions: 37°C; means ± S.D.; read-out: K i for inhibition of huPA-H99Y-Q192A
Text: as §1, §2, §3

muPA S190A = biological target: T6, muPA S190A (Mus musculus, UniProt P06869, S373A); experiment: Ki for inhibition of muPA-S190A, chromogenic substrate; format: biochemical, murine; conditions: means ± S.D.; read-out: K i for inhibition of muPA-S190A
T6 construct: To ensure that the uPAs purified from the conditioned media were completely in the two-chain form, they were treated with plasmin; hexa-His (C); made in house; host or cells: HEK293 6E suspension cells
Text: as §1, §2, §3

muPA K41A = biological target: T7, muPA K41A (Mus musculus, UniProt P06869, K210A); experiment: Ki for inhibition of muPA-K41A, chromogenic substrate; format: biochemical, murine; conditions: means ± S.D.; read-out: K i for inhibition of muPA-K41A
T7 construct: To ensure that the uPAs purified from the conditioned media were completely in the two-chain form, they were treated with plasmin; hexa-His (C); made in house; host or cells: HEK293 6E suspension cells
Text: as §1, §2, §3

huPA-H99Y K143A = biological target: T8, huPA-H99Y K143A (Homo sapiens, UniProt P00749, H272Y/K320A); experiment: Ki for inhibition of huPA-H99Y-K143A, chromogenic substrate; format: biochemical; conditions: 37°C; means ± S.D.; read-out: K i for inhibition of huPA-H99Y-K143A
T8 construct: To ensure that the uPAs purified from the conditioned media were completely in the two-chain form, they were treated with plasmin; hexa-His (C); made in house; host or cells: HEK293 6E suspension cells
Text: as §1, §2, §3

huPA-H99Y R35A = biological target: T9, huPA-H99Y R35A (Homo sapiens, UniProt P00749, H272Y/R198A); experiment: Ki for inhibition of huPA-H99Y-R35A, chromogenic substrate; format: biochemical; conditions: 37°C; means ± S.D.; read-out: K i for inhibition of huPA-H99Y-R35A
T9 construct: To ensure that the uPAs purified from the conditioned media were completely in the two-chain form, they were treated with plasmin; hexa-His (C); made in house; host or cells: HEK293 6E suspension cells
Text: as §1, §2, §3

muPA = biological target: T10, muPA (Mus musculus, UniProt P06869); experiment: Surface plasmon resonance analysis of peptide binding to muPA; design: species or system murine; conditions: SPR, 25°C, pH 7.4
T10 construct: To ensure that the uPAs purified from the conditioned media were completely in the two-chain form, they were treated with plasmin; hexa-His (C); made in house; host or cells: HEK293 6E suspension cells
Procedure: as §4, §5

muPA V213T = biological target: T11, muPA V213T (Mus musculus, UniProt P06869, V396T); experiment: Ki for inhibition of muPA-V213T, chromogenic substrate; format: biochemical, murine; conditions: means ± S.D.; read-out: K i for inhibition of muPA-V213T
T11 construct: To ensure that the uPAs purified from the conditioned media were completely in the two-chain form, they were treated with plasmin; hexa-His (C); made in house; host or cells: HEK293 6E suspension cells
Text: as §1, §2, §3

T10 sequence (P06869 180-433 limits assumed): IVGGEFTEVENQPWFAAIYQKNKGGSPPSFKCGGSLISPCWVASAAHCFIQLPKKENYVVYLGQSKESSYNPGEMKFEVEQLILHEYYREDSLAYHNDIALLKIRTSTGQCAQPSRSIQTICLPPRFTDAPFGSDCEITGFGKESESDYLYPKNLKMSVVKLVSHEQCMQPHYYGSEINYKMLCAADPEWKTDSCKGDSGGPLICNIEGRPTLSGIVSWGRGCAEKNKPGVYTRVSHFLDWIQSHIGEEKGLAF
T10 sequence (P06869 21-178 partner limits assumed): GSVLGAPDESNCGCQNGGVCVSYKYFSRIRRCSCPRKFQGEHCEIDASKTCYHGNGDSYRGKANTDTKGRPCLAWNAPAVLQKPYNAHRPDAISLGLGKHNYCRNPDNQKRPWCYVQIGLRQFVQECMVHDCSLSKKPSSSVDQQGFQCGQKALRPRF
T6 sequence (P06869 180-433 S373A): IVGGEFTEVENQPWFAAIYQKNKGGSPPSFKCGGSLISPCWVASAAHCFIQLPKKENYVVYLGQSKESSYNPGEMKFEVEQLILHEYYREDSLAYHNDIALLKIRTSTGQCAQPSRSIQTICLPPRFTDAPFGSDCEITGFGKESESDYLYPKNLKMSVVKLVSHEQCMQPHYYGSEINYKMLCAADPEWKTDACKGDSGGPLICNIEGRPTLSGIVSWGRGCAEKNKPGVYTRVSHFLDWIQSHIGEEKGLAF
T6 sequence (P06869 21-178 partner limits assumed): as the sequence (P06869 21-178 partner limits assumed) above
T11 sequence (P06869 180-433 V396T): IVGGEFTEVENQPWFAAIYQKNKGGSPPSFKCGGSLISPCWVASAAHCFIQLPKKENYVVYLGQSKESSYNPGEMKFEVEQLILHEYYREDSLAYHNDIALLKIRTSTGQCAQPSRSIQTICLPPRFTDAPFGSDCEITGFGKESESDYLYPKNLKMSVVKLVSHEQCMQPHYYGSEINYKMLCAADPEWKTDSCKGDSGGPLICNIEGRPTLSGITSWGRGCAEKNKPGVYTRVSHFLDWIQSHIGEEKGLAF
T11 sequence (P06869 21-178 partner limits assumed): as the sequence (P06869 21-178 partner limits assumed) above
T7 sequence (P06869 180-433 K210A): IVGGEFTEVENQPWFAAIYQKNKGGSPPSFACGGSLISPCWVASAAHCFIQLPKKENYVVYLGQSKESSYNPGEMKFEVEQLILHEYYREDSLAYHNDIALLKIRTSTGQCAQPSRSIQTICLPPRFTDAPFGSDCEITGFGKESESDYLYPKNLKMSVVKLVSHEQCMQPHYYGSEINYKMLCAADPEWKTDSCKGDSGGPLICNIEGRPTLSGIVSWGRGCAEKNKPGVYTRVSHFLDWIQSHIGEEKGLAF
T7 sequence (P06869 21-178 partner limits assumed): as the sequence (P06869 21-178 partner limits assumed) above
T4 sequence (P06869 180-433 Y274A): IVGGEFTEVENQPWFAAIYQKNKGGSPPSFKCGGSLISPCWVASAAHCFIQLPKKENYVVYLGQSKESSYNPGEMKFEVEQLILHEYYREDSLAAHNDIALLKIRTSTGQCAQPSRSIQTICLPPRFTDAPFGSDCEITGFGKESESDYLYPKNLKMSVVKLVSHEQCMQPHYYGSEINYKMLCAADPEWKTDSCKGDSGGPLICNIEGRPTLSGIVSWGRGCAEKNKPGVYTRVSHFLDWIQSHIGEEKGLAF
T4 sequence (P06869 21-178 partner limits assumed): as the sequence (P06869 21-178 partner limits assumed) above
T5 sequence (P06869 180-433 K322A): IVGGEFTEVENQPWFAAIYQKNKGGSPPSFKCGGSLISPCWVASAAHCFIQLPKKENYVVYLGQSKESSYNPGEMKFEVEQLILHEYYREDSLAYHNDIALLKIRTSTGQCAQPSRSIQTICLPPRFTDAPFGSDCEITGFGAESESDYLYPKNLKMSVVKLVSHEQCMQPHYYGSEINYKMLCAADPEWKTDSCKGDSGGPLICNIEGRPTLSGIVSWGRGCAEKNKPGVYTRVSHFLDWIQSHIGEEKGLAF
T5 sequence (P06869 21-178 partner limits assumed): as the sequence (P06869 21-178 partner limits assumed) above

Ki (huPA-H99Y [1]): > 1000 µM
Compound: CC(=O)N[C@H]1CSSC[C@@H](C(N)=O)NC(=O)[C@H](CC(=O)O)NC(=O)[C@H](CC(C)C)NC(=O)[C@H](Cc2ccc(O)cc2)NC(=O)[C@H](CCCNC(=N)N)NC(=O)[C@H](CO)NC(=O)[C@H](C)NC(=O)[C@H](C)NC(=O)[C@@H]2CCCN2C1=O [Mupain-1 Y4A, CPAASRYLDC] (Ac-CPAASRYLDC-NH2; disulfide 1-10)

Ki (huPA-H99Y [1]): 44 ± 3 µM
Compound: CC(=O)N[C@H]1CSSC[C@@H](C(N)=O)NC(=O)[C@H](CC(=O)O)NC(=O)[C@H](CC(C)C)NC(=O)[C@H](C)NC(=O)[C@H](CCCNC(=N)N)NC(=O)[C@H](CO)NC(=O)[C@H](Cc2ccc(O)cc2)NC(=O)[C@H](C)NC(=O)[C@@H]2CCCN2C1=O [Mupain-1 Y7A, CPAYSRALDC] (Ac-CPAYSRALDC-NH2; disulfide 1-10)

k off, huPA-H99Y (huPA-H99Y [2]): 3.33±0.13 (4) s^-1, ×10^2 | k on, huPA-H99Y (huPA-H99Y [2]): 4.65±0.27 (4) M^-1s^-1, ×10^-5 | Kd (huPA-H99Y [2]; calculated as k off/k on, read-out: K D, huPA-H99Y): 0.0718 ± 0.006 µM | Kd (huPA-H99Y [3]): 0.134 ± 0.061 µM | N (huPA-H99Y [3]): 0.88±0.11 (5) | TΔS (huPA-H99Y [3]): −6.2±2.7 (5) ^1 kJ/mole | ΔG (huPA-H99Y [3]): −39.5±1.1 (5) ^1 kJ/mole | ΔH (huPA-H99Y [3]): −46.6±2.9 (5) ^1 kJ/mole | Ki (huPA-H99Y V41A): 0.48 ± 0.158 µM | Ki (muPA Y99A): 1.36 ± 0.33 µM | Ki (muPA K143A): 0.1 ± 0.02 µM | Ki (huPA-H99Y Q192A): 0.438 ± 0.072 µM | Ki (muPA S190A): 0.529 ± 0.052 µM | Ki (muPA K41A): 0.014 ± 0.002 µM | Ki (huPA-H99Y K143A): 0.188 ± 0.057 µM | Ki (huPA-H99Y R35A): 0.174 ± 0.059 µM | Ki (huPA-H99Y [1]): 0.309 ± 0.013 µM | k off, muPA (muPA): 1.22±0.06 (3) s^−1, ×10^2 | k on, muPA (muPA): 5.79±0.82 (3) M^−1s^−1, ×10^−5 | Ki (muPA V213T): 0.014 ± 0.004 µM
Compound: CC(=O)N[C@H]1CSSC[C@@H](C(N)=O)NC(=O)[C@H](C)NC(=O)[C@H](CC(C)C)NC(=O)[C@H](Cc2ccc(O)cc2)NC(=O)[C@H](CC2CCN(C(=N)N)CC2)NC(=O)[C@H](CO)NC(=O)[C@H](Cc2ccc(O)cc2)NC(=O)[C@H](C)NC(=O)[C@@H]2CCCN2C1=O [Mupain-1-16 D9A, CPAYS[L-3-(N-amidino-4-piperidyl)alanine]YLAC] (Ac-CPAYS[Ala(1-amidino-4-piperidyl)]YLAC-NH2; disulfide 1-10)

Compound: CPAYSRYLDC [Mupain-1 L8A]
Ki (huPA-H99Y [1]): 19.1 ± 1.1 µM
